The record followed here is patent US5981520A, “Piperazino derivatives as neurokinin antagonists” (Schering Corporation, priority 1998, dated 1999).

In general, Ki refers to a measure of affinity in units of concentration, obtained from inhibition or displacement. A low value points to a stronger hold on the target. Usually inhibition stands for the percentage by which the read-out fell short of the control. A low value points to a response near the control.

In test [1] the target is T1, human neurokinin 1 (NK1) receptor (Homo sapiens, UniProt P25103).
T1 construct: expressed in transfected cells; host or cells: Chinese Hamster ovary (CHO) cells
Nature of the test: Neurokinin receptor binding assay, NK1 ([3H]-Substance P, CHO membranes). The conditions noted are these: for Ki: racemic compounds except specifically defined enantiomers. How it is done: (§1) Chinese Hamster ovary (CHO) cells transfected with the coding regions for the human neurokinin 1 (NK1) of the human neurokinin 2 (NK2) receptors are grown in Dulbecco's minimal essential medium supplemented with 10% fetal calf serum, 0.1 mM non-essential amino acids, 2 mM glutamine, 100 units/ml of penicillin and streptomycin, and 0.8 mg of G418/ml at 37° C. in a humidified atmosphere containing 5% CO2.
(§2) Cells are harvested by centrifugation and washed in RPMI media at […] for 5 minutes. The pellet is resuspended inTris-HCl (pH7.4) containing 1 uM phosphoramidon and 4 ug/ml of chymostatin at a cell density of 30×10^6 cells/ml. The suspension is then homogenized in a Brinkman Polytron (setting 5) for 30-45 seconds. The homogenate is centrifuged at 800×g for 5 min at 4° C. to collect unbroken cells and nuclei. The supematant is centrifuged in a Sorvall RC5C at 19,000 rpm ([…]) for 30 min at 4° C. The pellet is resuspended, an aliquot is removed for a protein determination (BCA) and washed again. The resulting pellet is stored at -80° C.
(§3) Binding is initiated by the addition of 100 μl of membrane (10-20 μg) containing the human NK-1 or NK-2 receptor in a final volume of 200 μl. After 40 minutes at room temperature, the reaction is stopped by rapid filtration onto Whatman GF/C filters which have been presoaked in 0.3% polyethylenimine. Filters are washed 2 times with 3 ml of 50 mM Tris-HCl (pH7.4).

The target of test [2] is T2, human neurokinin 2 (NK2) receptor (Homo sapiens, UniProt P21452).
T2 construct: expressed in transfected cells; host or cells: Chinese Hamster ovary (CHO) cells
T2 sequence (P21452 1-398): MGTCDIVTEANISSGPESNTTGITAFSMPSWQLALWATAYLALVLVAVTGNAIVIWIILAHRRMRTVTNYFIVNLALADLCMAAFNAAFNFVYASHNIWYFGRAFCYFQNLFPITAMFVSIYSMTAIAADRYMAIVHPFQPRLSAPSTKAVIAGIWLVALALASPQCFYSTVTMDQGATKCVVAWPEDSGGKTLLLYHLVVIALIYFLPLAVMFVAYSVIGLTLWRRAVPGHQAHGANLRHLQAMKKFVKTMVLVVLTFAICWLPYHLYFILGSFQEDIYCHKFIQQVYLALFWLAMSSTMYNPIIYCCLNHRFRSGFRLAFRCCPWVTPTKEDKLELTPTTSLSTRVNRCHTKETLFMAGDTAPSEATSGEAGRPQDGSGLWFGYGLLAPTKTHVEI
Nature of the test: Neurokinin receptor binding assay, NK2 ([3H]-Neurokinin A, CHO membranes). Conditions: for Ki: racemic compounds except specifically defined enantiomers. The protocol:
as §1, §2, §3

A further test concerns the target T3, NK3 (Homo sapiens, UniProt P29371).
T3 sequence (P29371 1-465): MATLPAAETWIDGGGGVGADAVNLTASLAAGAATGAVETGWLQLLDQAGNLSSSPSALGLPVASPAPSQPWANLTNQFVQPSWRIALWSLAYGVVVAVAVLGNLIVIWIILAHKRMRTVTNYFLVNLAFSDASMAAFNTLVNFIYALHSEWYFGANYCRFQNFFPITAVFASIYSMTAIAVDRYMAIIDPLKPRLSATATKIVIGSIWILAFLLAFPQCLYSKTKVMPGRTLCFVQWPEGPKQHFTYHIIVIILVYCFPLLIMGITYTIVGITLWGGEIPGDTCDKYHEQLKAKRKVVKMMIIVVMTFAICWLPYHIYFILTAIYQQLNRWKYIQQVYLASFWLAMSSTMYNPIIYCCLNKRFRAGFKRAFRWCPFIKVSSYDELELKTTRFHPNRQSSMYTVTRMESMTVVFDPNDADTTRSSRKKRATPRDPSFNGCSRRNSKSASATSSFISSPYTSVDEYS
Nature of the test: NK3 radioligand receptor binding assay as described in the literature. Conditions: racemic compounds except specifically defined enantiomers.

T1 sequence (P25103 whole entry): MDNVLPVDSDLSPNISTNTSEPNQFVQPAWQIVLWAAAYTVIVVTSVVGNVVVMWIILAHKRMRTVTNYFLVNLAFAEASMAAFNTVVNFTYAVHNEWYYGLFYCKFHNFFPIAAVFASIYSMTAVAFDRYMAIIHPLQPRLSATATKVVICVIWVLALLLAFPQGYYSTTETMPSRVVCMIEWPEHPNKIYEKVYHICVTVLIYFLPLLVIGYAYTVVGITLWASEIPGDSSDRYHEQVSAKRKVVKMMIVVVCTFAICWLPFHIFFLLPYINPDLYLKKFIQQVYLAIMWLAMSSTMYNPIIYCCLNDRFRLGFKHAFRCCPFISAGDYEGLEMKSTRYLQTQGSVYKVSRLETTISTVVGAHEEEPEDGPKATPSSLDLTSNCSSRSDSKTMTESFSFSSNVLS

`CN(CC(=O)N1CCN(Cc2cc(C(F)(F)F)cc(C(F)(F)F)c2)CC1c1ccc(Cl)c(Cl)c1)C1CCN(Cc2ccccc2)CC1` (stereo not drawn) showed a Ki in test [1] of 74 nM. In addition, the inhibition at 1 µM in test [2] worked out at 7%.
As to `O=C(c1ccccc1)N1CCN(C(=O)CNC2CCN(Cc3ccccc3)CC2)C(c2ccc(Cl)c(Cl)c2)C1` (stereo not drawn), the Ki in test [1] worked out at 93 nM; in test [2], 3.4 nM.
The like results for `CC(C)(C)c1cc(C(=O)N2CCN(C(=O)CNC3CCN(Cc4ccccc4)CC3)C(c3ccc(Cl)c(Cl)c3)C2)cc(C(C)(C)C)c1` (stereo not drawn) were, in that order, 63 nM and 68 nM.
The like results for `Cc1cc(C)cc(C(=O)N2CCN(C(=O)C[N+](C)(C)C3CCN(Cc4ccccc4)CC3)C(c3ccc(Cl)c(Cl)c3)C2)c1` (stereo not drawn) were, in that order, 0.58 nM and 93 nM.
With `O=C(c1cc(O)cc(O)c1)N1CCN(C(=O)CNC2CCN(Cc3ccccc3)CC2)C(c2ccc(Cl)c(Cl)c2)C1` (stereo not drawn), the inhibition at 1 µM in test [1] was determined as 14%; in test [2], 22%.
In the case of `O=C(c1cc(C(F)(F)F)cc(C(F)(F)F)c1)N1CCN(C(=O)CNC2CCN(Cc3ccccc3)CC2)C(c2ccc(Cl)c(Cl)c2)C1` (stereo not drawn), at NK3, the Ki turned out to be 433 nM.
As for `COc1ccc(C2CN(C(=O)c3cc(C(F)(F)F)cc(C(F)(F)F)c3)CCN2C(=O)CNC2CCN(Cc3ccccc3)CC2)cc1` (stereo not drawn), the Ki in test [1] came out at 2.5 nM; in test [2] it was 48 nM.
The like results for `O=C(C1c2ccccc2Oc2ccccc21)N1CCN(C(=O)CNC2CCN(Cc3ccccc3)CC2)C(c2ccc(Cl)c(Cl)c2)C1` (stereo not drawn) were, in that order, 117 nM and 187 nM.
